Assay results published in paper PMC10535004, “Investigation of Peptides for Molecular Recognition of C-Reactive Protein–Theoretical and Experimental Studies” (Analytical Chemistry, 2023).
Entries after “also recorded” stand apart in the source; their conditions may differ.

Columns and labels:
[1] = PM-IRRAS of peptide layers on gold; assay type: physicochemical; details: for secondary structure on gold (in words): amide I band, peptide 100 μg mL-1 in PBS
Description: (§1) 2.2. PM-IRRS analysis (polarisation modulation infrared reflection absorption
(§2) Three types o f samples were prepared and analysed: (a) peptide solution in PBS (100 μg mL-1), (b)
(§3) CRP solution in PBS (50 μg mL-1), and (c) protein -peptide complex. The complex was prepared

[2] = TEM analysis of peptide fibers; assay type: physicochemical; details: 1 mg mL-1 in PBS
Description: 2. Surface characterisation
Suspensions of selected phages (10^9 pfu mL-1) in PBS and corresponding peptides (1 mg mL-1) in PBS were adsorbed onto carbon-coated copper grids (Sigma) for 3 min, stained with 1.5% uracyl acetate. The samples were photographed using Tecani Spirit BioTWIN microscope at 120kV, and images were processed by iTEM program. […]

C-reactive protein (CRP) = molecular target: T1, C-reactive protein (CRP) (Homo sapiens, UniProt P02741); experiment: PM-IRRAS of protein-peptide complex on gold; assay type: binding; details: complex immobilized on gold; peptide 100 μg mL-1, CRP 50 μg mL-1 in PBS
T1 construct: purchased Biorbyt (UK)
T1 sequence (P02741 19-224): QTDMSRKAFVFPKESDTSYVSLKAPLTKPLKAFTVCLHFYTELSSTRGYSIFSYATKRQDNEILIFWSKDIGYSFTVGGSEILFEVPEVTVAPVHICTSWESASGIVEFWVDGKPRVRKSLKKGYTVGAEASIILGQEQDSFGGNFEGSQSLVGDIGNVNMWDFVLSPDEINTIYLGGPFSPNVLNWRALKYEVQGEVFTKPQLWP
Description: as §1, §2, §3

C-reactive protein [3] = molecular target: T2, C-reactive protein (human, UniProt P02741 19-224); experiment: ELISA; phage clones on CRP, phages detected by the enzymatic reaction of tagged anti-M13 antibodies, absorbance at 450 nm, compared with WT phage
T2 construct: C-reactive protein (CRP), cyclic pentamer of five identical, noncovalently connected subunits of 206 amino acids each (printed); PDB 3PVO was used only for docking; also called CRP
T2 sequence (looked up): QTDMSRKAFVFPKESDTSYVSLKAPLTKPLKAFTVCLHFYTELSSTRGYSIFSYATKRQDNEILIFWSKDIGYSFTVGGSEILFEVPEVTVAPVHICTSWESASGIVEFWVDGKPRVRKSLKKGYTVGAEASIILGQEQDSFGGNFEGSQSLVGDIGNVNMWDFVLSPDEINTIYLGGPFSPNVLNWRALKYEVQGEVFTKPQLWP

C-reactive protein [4] = molecular target: T2, C-reactive protein; experiment: differential pulse voltammetry (electrochemical); P3 peptide covalently immobilised on TESPSA-silanised ITO, blocked with 1% BSA; 20 uL protein in PBS pH 7.4 for 30 min at room temperature; 1 mM Fc(CH2OH)2 in PBS as redox probe; drop of peak current fitted with the Hill equation, Kd = KA^n; details: both partners purified
C-reactive protein [5] = molecular target: T2, C-reactive protein; experiment: PM-IRRAS; peptides immobilised on gold plates; spectra of peptide, CRP and the protein-peptide complex compared; details: both partners purified
[6] = immobilized on gold, assuming helical conformation

## GGSDPEGMQGNY [P2]
[1]
  secondary structure on gold (in words): higher amount of disordered structures in the secondary structure
[1]; [6]
  orientation of helix axis (in words): nearly parallel to the gold surface
[1]; peptide immobilized on gold
  amide I band position: 1674 cm–1
[2]
  fiber structure of peptide (in words): loose fibers, which are unordered and without forming a specific structure
C-reactive protein (CRP)
  peptide-CRP complex by PM-IRRAS (in words): the P2-CRP complex is formed, but the effect of the P2 on the CRP secondary structure is different compared to P9

## SWFSDWDLELHA [P9]
[1]
  secondary structure on gold (in words): presence of β-sheets; also recorded: contains β and α or disordered peptide chains
[1]; [6]
  angle between the helical axis and the surface: about 48 °
[2]
  fiber structure of peptide (in words): The fibers self-assemble into unique structures called twisted nanoribbons
C-reactive protein (CRP)
  peptide-CRP complex by PM-IRRAS (in words): the secondary structure of the complex may be affected

B1: P9 clone (M13 phage exposing the P9 peptide) (other)
chain: SWFSDWDLELHA
notes: peptide exposed on the M13 phage clone P9; also called P9 phage; source: M13 bacteriophage clone from phage display; not shown: M13 bacteriophage (peptide exposed on the phage)
C-reactive protein [3]
  ELISA signal, fold over WT phage: 16 fold

B2: P3 peptide (peptide)
peptide: VHWDFRQWWQPS
notes: 12-mer identified by phage display against CRP; immobilised on gold plates for PM-IRRAS, whose method is in the Supporting Information; also called peptide P3; source: synthetic peptide
C-reactive protein [4]
  Kd: 35 ± 1.2 nM

B3: P3 clone (M13 phage exposing the P3 peptide) (other)
chain: VHWDFRQWWQPS
notes: peptide exposed on the M13 phage clone P3; the library is described in the Supporting Information; also called P3 phage; source: M13 bacteriophage clone from phage display; not shown: M13 bacteriophage (peptide exposed on the phage)
C-reactive protein [3]
  ELISA signal, fold over WT phage: 13 fold

B4: P2 peptide (peptide)
peptide: GGSDPEGMQGNY
notes: 12-mer identified by phage display against CRP; Immobilised on gold plates for PM-IRRAS; method is in the Supporting Information; also called peptide P2; source: synthetic peptide
C-reactive protein [5]
  binding result: binds
